Series [1] has as its system sterile inflammatory lesions (pus capsule; turpentine oil). The experiment in a line: Biodistribution (pus capsule to contralateral tissue ratio) in rats with sterile inflammation. The following applies: for Pus Capsule and Contralateral Tissue (T/B) Ratio, biodistribution: sterile inflammation, i.v., 10 μCi/rat ^67 Ga (n=2), 5 μCi/rat ^125 IUdR (n=6), mean ± SD.
In series [2] the test system is bacterial (E. coli) inflammatory lesions (pus capsule). The experiment in a line: Biodistribution (pus capsule to contralateral tissue ratio) in rats with bacterial infection. The following applies: for Pus Capsule and Contralateral Tissue (T/B) Ratio, biodistribution: i.v., 10 μCi/rat ^67 Ga (n=2), 5 μCi/rat ^125 IUdR (n=5), mean ± SD. It counts as in vivo. The protocol:
(§1) A frozen sample of E. coli bacteria (clinical isolate; ATCC 9339) was used to inoculate a 10 ml trypticase soy medium (trypticase soy broth, BBL #11768, 30 g/L water), and the tube was incubated overnight at […] This culture was used to grow single colonies by streaking the sample on agar plates (100 mm petri dishes each containing 15 ml of […] in the same medium). Good colonies develop in 10-11 hours at 37° C. The agar plates containing bacterial colonies were stored upside down at 4° C. A single colony of bacteria from the agar plate was used to inoculate 10 ml trypticase soy medium, and the tube was incubated overnight at 37° C. with vigorous shaking. Two ml of this overnight culture was transferred into 100 ml trypticase soy medium and the sample incubated at 37° C. with vigorous shaking until the culture reached an OD600 of ~0.8 (in about 2 hrs). This 100 ml culture contained ~6.4×10^10 bacterial cells (1 OD600 =8×10^8 cells/ml).
(§2) The culture was centrifuged at 5500 rpm for 5 min at 4° C. in a Sorvall SS-34 rotor, the bacterial pellet resuspended in saline to give ~2.5×10^9 bacteria/ml, and 0.1 ml of resuspended cells injected into the left thigh muscle of each anesthetized rat.
No-carrier added radioiodinated deoxyuridine (^125 IUdR) was synthesized by the method described in the above disclosure. Commercially available gallium-67 citrate of known biodistribution characteristics was obtained, for comparison to ^125 IUdR. 24 hrs after each rat described in Example 2 received an intramuscular injection of E. coli or after each rat described in Example 1 received an intramuscular injection of turpentine oil (to permit comparison of activity in a bacterial inflammation lesions to activity in a sterile inflammation lesions) in the left rear thigh, each rat received either ^125 IUdR (about 5 μCi/rat) or gallium-67 citrate (about 10 μCi/rat) suspended in 0.1 ml saline, by injection into the tail vein.
At one, three and 24 hrs after ^125 IUdR or gallium-67 citrate administration, the animals from each group were anesthetized, blood collected via cardiac puncture, urine aspirated from the urinary bladder, and the rats humanely sacrificed. The biodistribution of each radiopharmaceutical (measured as a function of the % injected dose/gram body weight) was then determined in various normal tissues and organs, as well as the left and right legs, the pus capsule formed within the leg and in contralateral muscle tissues (i.e., background tissues unaffected by inflammation) of equivalent weight.
To determine the distribution of each radiopharmaceutical in various tissues of each rat (i.e., the "biodistribution" of each radiopharmaceutical), samples of background tissues and organs (blood, lung, liver, spleen, kidney, muscle and intestine), of target tissue (the pus capsule formed in the leg) and of contralateral muscle tissue (background tissue adjacent to target tissue) were obtained from each rat and weighed. Radioactivity in each sample was measured in a well-type gamma counter (from LKB, Wallac Oy, Finland). To correct for radioactive decay and permit calculation of activity in each organ or tissue as a fraction of the injected dosage of radiopharmaceutical, aliquots of the injected doses were counted at the same time that radioactivity in each sample was determined. The results were measured as a function of the percentage of injected dose/gram (% ID/g). For further reference regarding measurements of biodistribution of radiopharmaceuticals, particularly in blood, those of ordinary skill in the art may wish to refer to Baker et al., "The Laboratory Rat" (Acad.Press N.Y., 1980).
Ab = %ID/g over contralateral muscle

Series [3] has the same test system. The experiment in a line: Gamma camera imaging of rats with bacterial infection. Type of series: in vivo. More on the design: key to Figure of Merit (FOM), equation (1): FOM=(At-Ab)^2/(At+Ab), from total counts target vs background. The following applies: i.v.; for Figure of Merit (FOM), equation (1): 0.2 mCi ^67 Ga-citrate (n=3); for Figure of Merit (FOM), equation (1) / Pus Capsule to Contralateral Tissue (T/B) Ratio, gamma camera imaging: 1.5 mCi/rat ^123 IUdR (n=4); for Figure of Merit (FOM), equation (1) / Pus Capsule to Contralateral Tissue (T/B) Ratio, gamma camera imaging / Figure of Merit (FOM), equation (2): mean ± SD; for Pus Capsule to Contralateral Tissue (T/B) Ratio, gamma camera imaging: 0.2 mCi/rat ^67 Ga (n=3); for Figure of Merit (FOM), equation (2): n=3 (^67 Ga), n=4 (^123 IUdR). Here is the method: as §1, §2
A further set of rats prepared as described in Examples 1 and 2 received intravenous injections of either ^123 IUdR (at a dose of about 1.5 mCi/rat) or gallium-67 citrate (at a dose of about 0.2 mCi/rat). After 1, 3 and 24 hours, rats from each group were anesthetized and imaged using a gamma camera (the General Electric STARCAM™ 400 fitted with parallel hole medium collimator). Anterior images were obtained 10^6 counts/frame except for the 24 h period for ^123 IUdR where a 15 min scan was carried out. A 20% window was present over the 159 keV photopeaks of ^67 Ga (93 kev, 184 keV, and 298 keV).
Regions of interest (ROI) were drawn over the inflamed areas (3×4 pixel) and over the contralateral area in each rat. Total counts in these regions were used to calculate Target to Background (T/B) ratios and to calculate Figure of Merit (FOM; statistical significance) values using either of the following equations:
FOM=(At -Ab)^2 /(At +Ab) (1)
At =counts in ROI (3×4) over pus capsule; and
Ab =counts in ROI (3×4) over contralateral muscle.
Equation (1) is derived from the Report of the National Council on Radiation Protection and Measurements, Nuclear Medicine, "Factors Influencing the Choice and Use of Radionuclides in Diagnosis and Therapy", Report No. 70, p.79 (NRCP, Bethesda, Md., 1982). Equation (2) is derived from Rubin et al., J. Nucl. Med. 30:385-389, 1989. For purposes of reference, the disclosures of each of these publications is incorporated herein.

The values below come from patent US5811073A, “Method for radioisotopic detection and localization of inflammation in a host” (President and Fellows of Harvard College, priority 1995, dated 1998).

Each structure is given as a SMILES string.

As for `O=C([O-])CC(O)(CC(=O)[O-])C(=O)[O-].[67Ga+3]` [^67 Ga, gallium-67 citrate], the “concentration within lesion (pus capsule) vs contralateral tissues (in words)” value in series [1] (sterile inflammation (turpentine oil)) and in series [2] (bacterial (E. coli) inflammation) was “to a greater extent than in the contralateral tissues” in each case. Besides, the “Pus Capsule and Contralateral Tissue (T/B) Ratio, biodistribution” value was found to be 3.55 ± 0.24 in series [1] (3 h); 2.85 ± 0.64 in series [1] (24 h); 3.21 ± 0.13 in series [2] (bacterial infection, 3 h); 4.07 ± 1.09 in series [2] (bacterial infection, 24 h). In series [2] (bacterial infection, FIGS. 1 and 5), the “time of accumulation at the site of inflammation (in words)” value is “did not accumulate at the site of inflammation until several hours after its administration”. Further, in series [3] (1, 3, and 24 h), the “detection of the lesion in scintigraphic images (in words)” value is recorded as “can clearly detect the lesion”. In addition, the results for the “Figure of Merit (FOM), equation (1)” value in series [3] (1 h), in series [3] (3 h) and in series [3] (24 h) were 49 ± 60, 306 ± 210 and 231 ± 135, respectively. Further, the results for the “Pus Capsule to Contralateral Tissue (T/B) Ratio, gamma camera imaging” value in series [3] (1 h), in series [3] (3 h) and in series [3] (24 h) were 1.26 ± 0.09, 2.01 ± 0.24 and 1.91 ± 0.15, respectively. Moreover, the results for the “Figure of Merit (FOM), equation (2)” value in series [3] (1 h), in series [3] (3 h) and in series [3] (24 h) were 0.26 ± 0.11, 1.01 ± 0.29 and 0.90 ± 0.21, respectively.
